The source of these data is PubChem BioAssay (NCI).

Molecules are shown by their SMILES. Values joined by “and” are separate entries in the source; they are usually repeats but may differ in a detail not shown here. Equal values may be shown once.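 Method: 48-hour compound exposure of cells in 96-well plates, five concentrations, linear interpolation of endpoints. Abbreviation: GI50, concentration required for 50% inhibition of growth. TGI: total growth inhibition.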

Test systems include SNB-75 CNS; SF-295 CNS; PC-3 prostate; SF-268 CNS; SK-MEL-5 melanoma; SNB-19 CNS; MDA-MB-435; NCI-H460 lung; OVCAR-4 ovarian; NCI/ADR-RES ovarian.
Test in all cases: NCI tumour cell line growth inhibition, 48 h

On to `C=C1CC2(OC1=O)C(=O)N(CCCCCCCN1C(=O)C3(CC(=C)C(=O)O3)c3ccccc31)c1ccccc12` (configuration not stated), for which the GI50 in the test with SNB-75 CNS was 6.35 µM; in the test on SF-295 CNS it was 10.2 µM; in the test on PC-3 prostate, 1.53 µM; with SF-268 CNS it was 3.97 µM; with SK-MEL-5 melanoma, 7.11 µM; in the test with SNB-19 CNS it was 8.52 µM. For the same compound, the GI50 was 1.29 µM in the test on MDA-MB-435, 2.9 µM in the test with NCI-H460 lung, 2.01 µM in the test on OVCAR-4 ovarian and 1.68 µM in the test on NCI/ADR-RES ovarian. Moreover, the TGI in the test on SNB-75 CNS came to 19.5 µM; in the test on SF-295 CNS it was 25 µM; in the test on PC-3 prostate, 6.58 µM; with SF-268 CNS, 12 µM; in the test with SK-MEL-5 melanoma it was 13.7 µM; with SNB-19 CNS it was 22 µM. The TGI in the test on MDA-MB-435 stood at 3.92 µM; in the test on NCI-H460 lung, 12.3 µM; in the test on OVCAR-4 ovarian, 7.6 µM; in the test with NCI/ADR-RES ovarian, 8.78 µM.

Consider `CN1CCN(CN2C(=O)C3C4C=CC(C3C2=O)C2C3C(=O)N(CN5CCN(C)CC5)C(=O)C3C42)CC1` (configuration not stated), for which the TGI in the test on SNB-75 CNS was 79.8 µM and 72.9 µM and 92.1 µM; in the test on SF-295 CNS it was 97.4 µM and > 100 µM; with PC-3 prostate, 97.9 µM; with SF-268 CNS, 50.6 µM and > 62.6 µM and 33.9 µM; with SK-MEL-5 melanoma, 31 µM and > 58.5 µM and 68.7 µM; in the test on SNB-19 CNS it was over 100 µM. Moreover, the TGI in the test with MDA-MB-435 was 31.3 µM; in the test with NCI-H460 lung it was 32.3 µM and 37.9 µM and 27.3 µM; with OVCAR-4 ovarian, 38.4 µM and 45.1 µM and 53.5 µM; with NCI/ADR-RES ovarian it was 64.5 µM. Further, the GI50 in the test on SF-295 CNS was 32.2 µM and 86.2 µM and 49.2 µM; in the test with SNB-19 CNS it was 31.7 µM and 53.2 µM and 76.9 µM.

Turning to `COc1cccc(C2CC(C)(N3CCCC3)Oc3cc4c(cc32)OCO4)c1O` (configuration not stated), the TGI in the test with SNB-75 CNS is 53.9 µM; in the test on SF-295 CNS, 59.6 µM; in the test with PC-3 prostate, over 76.1 µM; in the test on SF-268 CNS, over 92.1 µM; with SK-MEL-5 melanoma, over 62.4 µM; in the test on SNB-19 CNS, over 100 µM. Also, the TGI with MDA-MB-435 is 18.4 µM; in the test with NCI-H460 lung it was over 82.1 µM; in the test with OVCAR-4 ovarian, over 100 µM; in the test on NCI/ADR-RES ovarian it was 62.4 µM.

For the compound `COc1ccc(N=C2CSc3nnc(-c4cc(F)c(Cl)cc4Cl)n3N2)cc1`, the GI50 with SNB-75 CNS was 0.355 µM; with SF-295 CNS, 0.347 µM; in the test with PC-3 prostate, 1.17 µM; with SF-268 CNS it was 1.69 µM; in the test with SK-MEL-5 melanoma it was 1.28 µM; with SNB-19 CNS it was 0.776 µM. In addition, the GI50 was 0.208 µM in the test with MDA-MB-435, 1.07 µM in the test on NCI-H460 lung, 1.82 µM in the test on OVCAR-4 ovarian and 2.96 µM with NCI/ADR-RES ovarian. The TGI with SNB-75 CNS worked out at 1.58 µM; in the test with SF-295 CNS, 2.08 µM; in the test on PC-3 prostate, 13.9 µM; in the test with SF-268 CNS, 21.7 µM; with SK-MEL-5 melanoma, 11.1 µM; in the test with SNB-19 CNS it was 18.9 µM. Moreover, the TGI was 0.785 µM in the test with MDA-MB-435, 12.3 µM with NCI-H460 lung, 7.04 µM in the test on OVCAR-4 ovarian and over 100 µM in the test on NCI/ADR-RES ovarian.

As to `Cc1cc(-c2ncc(CC(=O)Nc3ccc(-c4cnccn4)cn3)cc2C)ccn1`, the GI50 in the test with SNB-75 CNS was 13.8 µM; with SF-295 CNS, 15.3 µM; with PC-3 prostate it was 28.2 µM; in the test on SF-268 CNS it was 96 µM; in the test with SK-MEL-5 melanoma, 6.69 µM; with SNB-19 CNS, 34.6 µM. The GI50 was 21.8 µM in the test on MDA-MB-435, 63 µM with NCI-H460 lung, 6.11 µM with OVCAR-4 ovarian and 17.6 µM with NCI/ADR-RES ovarian. The TGI with SNB-75 CNS is over 100 µM; in the test on SF-295 CNS it was over 100 µM; in the test on PC-3 prostate, over 100 µM; in the test with SF-268 CNS, over 100 µM; with SK-MEL-5 melanoma, 29.6 µM; with SNB-19 CNS it was over 100 µM. Also, the TGI in the test on MDA-MB-435, with NCI-H460 lung, with OVCAR-4 ovarian and in the test on NCI/ADR-RES ovarian was over 100 µM each time.

Take `O=[N+]([O-])c1ccc(C(c2c[nH]c3ccccc23)c2c[nH]c3ccccc23)cc1`: the TGI with SNB-75 CNS was 18.5 µM; in the test on SF-295 CNS, over 100 µM; in the test on PC-3 prostate, 28.4 µM; in the test with SF-268 CNS, 22.5 µM; with SK-MEL-5 melanoma it was 20.2 µM; with SNB-19 CNS, 35.8 µM. The TGI in the test on MDA-MB-435 worked out at 32.3 µM; in the test with NCI-H460 lung, 12.6 µM; in the test with OVCAR-4 ovarian, 28.2 µM; with NCI/ADR-RES ovarian it was 27.5 µM.

Take `COc1cc(C2C=C(c3cccc(NC(C)=O)c3)Nc3ncnn32)cc(OC)c1OC` (configuration not stated): the GI50 with SNB-75 CNS was 4.14 µM; with SF-295 CNS it was 0.229 µM; with PC-3 prostate, 1.13 µM; in the test with SF-268 CNS it was 0.675 µM; with SK-MEL-5 melanoma it was 0.397 µM; with SNB-19 CNS, 1.21 µM. For the same compound, the GI50 is 0.117 µM with MDA-MB-435, 2.14 µM with NCI-H460 lung, 5.8 µM in the test with OVCAR-4 ovarian and 8.04 µM in the test with NCI/ADR-RES ovarian. Besides, the TGI in the test on SNB-75 CNS was over 100 µM; with SF-295 CNS, over 32.8 µM; in the test on PC-3 prostate, over 100 µM; in the test with SF-268 CNS, over 100 µM; in the test on SK-MEL-5 melanoma it was 22.2 µM; in the test on SNB-19 CNS, over 100 µM. Moreover, the TGI with MDA-MB-435 was 0.579 µM; in the test on NCI-H460 lung, over 100 µM; in the test on OVCAR-4 ovarian, over 100 µM; in the test with NCI/ADR-RES ovarian it was 63.7 µM.
